Test results from PMC12040169 (PLOS Biology, 2025).

assay: in vitro; settings: human, hela cells, % viability

Row | Structure (SMILES) | viability at 28.5 h, 10 µM [%]
1 | CC(Cc1c[nH]c2ccccc12)NC(=N)NC(=N)N (stereo not drawn) [CBK268251C] | 91.7
2 | Clc1cc(N[C@@H]2CCN(Cc3ccccc3)C2)n2nccc2n1 [CBK037069] | 92.3
3 | COc1ccc(OCC(=O)Nc2ccc(CN3CCOCC3)cc2)cc1 [CBK269686] | 105
4 | COc1ccc(N2C(=O)CSC23C(=O)Nc2ccc(Br)cc23)cc1 (stereo not drawn) [CBK093454] | 96.6
5 | COC(=O)c1cccc(CCC2CC(=O)C=C(O)C2)c1 (stereo not drawn) [CBK012720] | 93.7
6 | O=c1n(-c2ccc3c(c2)OCO3)ccn1S(=O)(=O)c1ccc2c(c1)OCCO2 [CBK106636] | 87.8
7 | Cc1c(C(=O)NCCN2CCC(C)CC2)oc2c1C(O)CC(C)(C)C2 (stereo not drawn) [CBK282100] | 87.1
8 | CC(=O)c1ccc(-c2nccnc2NCC(O)COc2ccccc2)s1 (stereo not drawn) [CBK036976] | 107
9 | Cc1noc(NS(=O)(=O)c2ccc(NC(=O)CCN3C(=O)c4ccccc4C3=O)cc2)c1C [CBK264091] | 96.1
10 | Cc1ccccc1NS(=O)(=O)c1cc(C(=O)Nc2ccc(S(=O)(=O)N3CCCC3)cc2)ccc1C [CBK269004] | 92.9
11 | Cc1cc(NC(=O)N2CCN(CCNC(=O)C3CCCC3)CC2)no1 [CBK305064] | 100
12 | COc1ccccc1C(NC(=O)N(C(C)C)C(C)C)c1nccn1C (stereo not drawn) [CBK283834] | 81.9
13 | COc1ccc2ncc3c(-c4ccccc4)n[nH]c3c2c1 [CBK288052] | 93.3
14 | O=C(c1ccc(OC(F)(F)F)cc1)N1CCC2(CCN(C(=O)c3ccoc3)C2)C1 (stereo not drawn) [CBK131735] | 92.8
15 | O=C(c1ccco1)N1CCC(c2ccnc3nc4ccccc4n23)CC1 [CBK284490] | 87.2
16 | Cc1nn(C)cc1-c1cncn1C(CCN(C)C)c1ccccc1 (stereo not drawn) [CBK281987] | 92.3
17 | COc1ccc(CC(=O)NNC(=O)c2ccc(C(C)(C)C)cc2)cc1 [CBK261700] | 92.5
18 | CCc1ccc(S(=O)(=O)Nc2ccc(O)c(C(=O)O)c2)cc1 [CBK299827] | 90.7
19 | COc1ccccc1-c1nccnc1NCc1ccc(C(F)(F)F)cc1 [CBK036788] | 109
20 | COc1ccc(Cn2nc(NS(=O)(=O)c3cn(C)cn3)c3ccccc32)cc1 [CBK048143] | 87.7
21 | Cc1nc(C)c(C(=O)N2CCC(c3cc4ncccc4[nH]3)CC2)s1 [CBK283396] | 101

Row | Structure (SMILES) | viability at 28.5 h, 10 µM [%]
22 | COc1cc(S(=O)(=O)N2CCN(S(=O)(=O)c3cccc([N+](=O)[O-])c3)CC2)ccc1Cl [CBK266285] | 89.6
23 | CCCCNC(=S)NC1CC[C@@]2(c3ccc(Br)cc3)CCN(C)[C@H]2C1 (stereo partly drawn) [CBK003781] | 111
24 | COc1cccc(-c2nc(-c3ccc4[nH]c(=O)[nH]c4c3)cs2)c1OC [CBK298271] | 108
25 | C/C(=N\Nc1cc(-c2ccccc2)nc(C)n1)c1ccc(O)cc1 [CBK261710] | 87.9
26 | CCC(C)(C)c1ccc(S(=O)(=O)N2CCCN(Cc3cccc4c3OCO4)CC2)cc1 [CBK062872] | 100
27 | CN(C)Cc1cn([C@H]2CO[C@H]3[C@@H]2OC[C@@H]3NC(=O)NC2CCCCC2)nn1 [CBK289493] | 88.9
28 | Cc1nn(Cc2ccccc2)c(Cl)c1C=Cc1cc(C(=O)O)c2ccccc2n1 [CBK296942] | 95.4
29 | O=C(CC(CN1CCN(Cc2ccccn2)CC1)C(=O)O)Nc1ccc(F)cc1 (stereo not drawn) [CBK286800] | 86.8
30 | C[C@H](Nc1nc(-c2cccc3ncccc23)cnc1N)c1ccccc1 [CBK063771] | 97.6
31 | N=c1c2c(-c3ccccc3)c(-c3ccccc3)n(Cc3ccco3)c2ncn1CCN1CCOCC1 [CBK268545] | 93.5
32 | Cn1cc(CN2CCCN(C(=O)CCCc3ccccn3)CC2)cn1 [CBK305347] | 87.3
33 | O=C(CN1CCCC1)N1CCCC1c1nc2ccccc2[nH]1 (stereo not drawn) [CBK284003] | 89.4
34 | CCC(CC)C(=O)Nc1nc(OC)cnc1-c1cccc(C(=O)N(C)C)c1 [CBK145392] | 98.5
35 | COc1ccc(OC)c(S(=O)(=O)N2CC[C@H]3CC(=O)N(CCN(C)C)CC[C@H]3C2)c1 [CBK288788] | 104
36 | Cc1ccc(-c2ccc(N3CCCC(C(=O)O)C3)nn2)cc1C (stereo not drawn) [CBK300513] | 95.8
37 | Cc1ncccc1COC(=O)N1CCCC(F)C1 (stereo not drawn) [CBK200155] | 118
38 | O=C(NC1CCCCC1)N1Cc2nc[nH]c2C[C@H]1c1nc(-c2ccc3c(c2)OCO3)no1 [CBK289000] | 95.7
39 | O=S(=O)(Nc1ccccc1OC(F)(F)F)c1ccc(N2CCNCC2)c2ccccc12 [CBK003933C] | 92.8
40 | c1ccc(C[n+]2cn3cc(-c4ccccc4)nc3[n-]2)cc1 [CBK261654] | 94
41 | O=c1c2sccc2[nH]c(=S)n1CCc1ccccc1 [CBK288486] | 118
42 | COCCCNC(=O)C1CCCN(c2nc3c(-c4ccccc4)csc3c(=O)[nH]2)C1 (stereo not drawn) [CBK215498] | 94

Row | Structure (SMILES) | viability at 28.5 h, 10 µM [%]
43 | CCn1c(C2CCN(C(=O)c3cc(C(F)(F)F)n[nH]3)CC2)nn(C)c1=O [CBK307184] | 88.9
44 | CCn1cc(C(=O)O)c(=O)c2cc(F)c(N3CCN(C(=S)Nc4cc(OC)ccc4OC)CC3)cc21 [CBK265831] | 85.7
45 | O=c1c2c(-c3ccccc3)ccnc2[nH]n1-c1ccccc1 [CBK287858] | 97
46 | Cc1nc2ccc(NC(=O)CC(c3ccccc3)c3ccccc3)cc2s1 [CBK293988] | 90
47 | O=C(Nc1ccccn1)c1cc2ccccc2oc1=O [CBK287354] | 91.7
48 | Cc1nn(Cc2cccc(C(=O)Nc3ccc(S(=O)(=O)N4CCCCC4)cc3)c2)c(C)c1Cl [CBK265815] | 81.9
49 | CN(C)c1ccc(-c2noc([C@@H]3CCCN3C)n2)cn1 [CBK288902] | 104
50 | O=C(Nc1ccncc1)c1cc2cc(Cl)ccc2[nH]1 [CBK107340] | 95
51 | O=C(C[n+]1ccccc1)c1ccccc1Cl [CBK016283B] | 112
52 | CC(C)Cn1c(SCC(=O)N2CCNC2=O)nnc1-c1ccco1 [CBK295175] | 106
53 | CN(C)CCCC(=O)Nc1cccc2[nH]ccc12 [CBK159660] | 99.9
54 | COc1ccc2sc(N(Cc3cccnc3)C(=O)C3COc4ccccc4O3)nc2c1 (stereo not drawn) [CBK294424] | 107
55 | COCc1cn(C[C@H]2CC3CCN2C[C@@H]3C(=O)NC(C)C)nn1 (stereo partly drawn) [CBK288733] | 89.2
56 | CC(=O)N1CCCN(C(=O)Cn2cnc3ccc(F)cc3c2=O)CC1 [CBK245206] | 106
57 | Cc1nc(-c2ccc(S(=O)(=O)NCC3CC3)s2)cs1 [CBK085873] | 83.9
58 | CCn1cc(S(=O)(=O)NCC2(c3ccccc3)CCCC2)cn1 [CBK282768] | 97.2
59 | COc1ccc(OC)c(NC(=O)C(C)Oc2ccccc2OC)c1 (stereo not drawn) [CBK269766] | 85.3
60 | Cc1cc(C)cc(CNC(=O)N(CCCO)Cc2ccncc2)c1 [CBK304335] | 93.7
61 | O=C(Nc1ccnn1Cc1cc(Br)cs1)c1ccc2ncsc2c1 [CBK296713] | 105

same assay, conditions: human, hela cells, % viability, bulk resorufin, single well

Row | Structure (SMILES) | viability at 28.5 h, 10 µM [%]
62 | CC(=O)N1CCC2(CC1)OCc1cc(-c3ccccc3C(=O)O)ccc1O2 [CBK060975] | 92.1
63 | Cc1ccc(Cn2nc(C(=O)Nc3cc(C)on3)c3ccccc32)cc1 [CBK047844] | 98.7
